The values below come from patent US20220000777A1, “LIPOSOMAL ENHANCED INTRA-PERITONEAL CHEMOTHERAPY” (TESORX PHARMA, LLC, priority 2018, published 2022).

“And” between values parts separate entries of the source, which are not always exact repeats. Identical values can stand only once. Counter-ions that a name gives are not always drawn. Like-named read-outs stand apart in the source and are kept apart here.

The test system of data set [1] is ovarian cancer. To be noted: intraperitoneal cisplatin regimen, versus 41 months, p=0.02; cited from earlier work.
For data set [2] the following is noted: cited from earlier work.
In data set [3] the test system is ovarian cancer. To be noted: cited from earlier work.
Data set [4] relates to OVCAR3-RFP human ovarian cancer cells. In words: sulforhodamine B (SRB) assay, dosage curves and IC50. To be noted: 72 h treatment; for IC50: Homo sapiens, 72 h. The class given is cell-based. The method, then: Example 1. Determination of paclitaxel […] in TSD-001-treated human ovarian cancer cells. A sulforhodamine B (SRB) assay-based approach was employed to determine the inhibitory concentration (IC)50 of paclitaxel against OVCAR3-RFP human ovarian cancer cells (Anticancer Inc.) treated with the TSD-001 paclitaxel liposomal formulation (Paclitaxel:DMPC:DMPG=1:1.43:0.567). For use in the assay, lyophilized TSD-001 was reconstituted in sterile injectable-grade water to a concentration of 6 mg/mL and subsequently serially diluted in RPMI cell culture medium (RPMI-1640 with L-glutamine, Corning). Three separate dosage curve assays were performed. In two of the assays, the serial dilutions of TSD-001 ranged from 0.05 μg/mL to 0.391 ng/mL, and in the third assay, the serial dilutions of TSD-001 ranged from 0.0128 μg/mL to 2.147 ng/mL.
Serial dilutions of the Abraxane® paclitaxel formulation (nanoparticle albuminbound paclitaxel) and doxorubicin HCl were also prepared to perform comparative dosage curve assays in OVCAR3-RFP cells. For these assays, lyophilized Abraxane® was dissolved in RPMI medium to a concentration of 1 mg/mL, and doxorubicin HCl was dissolved in a small amount of DMSO, and the diluted in RPMI medium to a concentration of 1 mg/mL. Three separate dosage curve assays were performed for Abraxane®. In one assay, the serial dilutions of Abraxane® ranged from 0.04 μg/mL to 0.078 ng/mL. In the second assay, the serial dilutions of Abraxane® ranged from 0.04 μg/mL to 8.39 ng/mL and in the third assay, the serial dilutions of Abraxane® ranged from 0.032 μg/mL to 8.39 ng/mL. […]
OVCAR3-RFP cells were seeded onto 96-well clear flat-bottom polystyrene tissue culture plates (Corning) at a density of approximately 5×10^3 cells/well in 200 μl of RPMI. […] Protein-bound SRB was detected by adding 200 μl 10 mM Tris base solution (pH 10.5) to each well, followed by placing the plate(s) on a byratory shaker for 5 minutes to allow the Tris solution to solubilize SRB. The plates were read using a microplate reader at an absorbance of 510 nm. […]
For orientation: Sulforhodamine B stains cellular protein and so reports cell mass.

`N.N.[Cl][Pt][Cl]` [cisplatin, Cis-diamminedichloroplatinum(10)]: in the data set with ovarian cancer [1], the overall survival median is on record as 49 months. In addition, the “peritoneal cavity exposure to greater concentrations than possible with systemic therapy delivery” value in data set [2] (in vivo, ip) is reported as 10-20 fold.
In the case of `CC(=O)O[C@H]1C(=O)[C@@]2(C)[C@H]([C@H](OC(=O)c3ccccc3)[C@]3(O)C[C@H](OC(=O)[C@H](O)[C@@H](NC(=O)c4ccccc4)c4ccccc4)C(C)=C1C3(C)C)[C@]1(OC(C)=O)CO[C@@H]1C[C@@H]2O` [paclitaxel], the surgical complete response in the data set with ovarian cancer [3] (intraperitoneal 60 mg/m^2 per week for 16 weeks, microscopic residual patients) is listed as 61%. Besides, the complete response result in the data set on ovarian cancer [3] (intraperitoneal 60 mg/m^2 per week for 16 weeks, women with macroscopic residual cancer) was “one of the 31”. For the same compound, the dose-limiting toxicity entry in the data set on ovarian cancer [3] (intraperitoneal use, Phase 1 study) is “abdominal pain”. For the same compound, the “peritoneal cavity exposure to greater concentrations than possible with systemic therapy delivery” value in data set [2] (intraperitoneal versus systemic delivery) is given as “greater than 1000 fold”.
As for `COc1cccc2c1C(=O)c1c(O)c3c(c(O)c1C2=O)C[C@@](O)(C(=O)CO)C[C@@H]3O[C@H]1C[C@H](N)[C@H](O)[C@H](C)O1` [doxorubicin HCl], the IC50 in data set [4] (Table 1, combined data, read-out: Mean IC50 (μg/mL) against OVCAR3-RFP cells (n ≥ 5)) came out at 0.191 ± 0.0835 µg/mL; in data set [4] (single dosage curve assay, n=3 or 4 wells/concentration, read-out: IC50 at 72 h.), 0.17 µg/mL. In addition, in data set [4] (single dosage curve assay, n=3 or 4 wells/concentration, HCl), the “IC50 at 72 h.” value was 0.1322 µg/mL and 0.166 µg/mL.
